{"source": "paper PMC9908026", "about": "(Science Advances, 2023)", "target": "T1, EcGlyRS ((αβ)2 orphan GlyRS, full-length; EcGlyRS_FL) (Escherichia coli, UniProt P00960)", "T1 construct": "gene glyQ; full-length α and β subunits co-expressed in E. coli BL21(DE3); C-terminal His6 tag on β, no cleavage told; (αβ)2 heterotetramer; with Glycine--tRNA ligase beta subunit", "T1 sequence (P00960 1-303)": "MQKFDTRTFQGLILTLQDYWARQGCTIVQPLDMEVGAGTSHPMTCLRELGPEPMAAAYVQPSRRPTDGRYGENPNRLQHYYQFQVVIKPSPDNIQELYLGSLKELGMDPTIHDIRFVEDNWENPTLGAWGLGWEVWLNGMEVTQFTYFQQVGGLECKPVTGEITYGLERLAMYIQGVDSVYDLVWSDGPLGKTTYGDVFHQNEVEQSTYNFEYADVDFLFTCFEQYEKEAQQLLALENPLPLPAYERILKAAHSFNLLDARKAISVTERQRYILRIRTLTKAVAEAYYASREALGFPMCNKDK", "T1 sequence (P00961 2-689 partner)": "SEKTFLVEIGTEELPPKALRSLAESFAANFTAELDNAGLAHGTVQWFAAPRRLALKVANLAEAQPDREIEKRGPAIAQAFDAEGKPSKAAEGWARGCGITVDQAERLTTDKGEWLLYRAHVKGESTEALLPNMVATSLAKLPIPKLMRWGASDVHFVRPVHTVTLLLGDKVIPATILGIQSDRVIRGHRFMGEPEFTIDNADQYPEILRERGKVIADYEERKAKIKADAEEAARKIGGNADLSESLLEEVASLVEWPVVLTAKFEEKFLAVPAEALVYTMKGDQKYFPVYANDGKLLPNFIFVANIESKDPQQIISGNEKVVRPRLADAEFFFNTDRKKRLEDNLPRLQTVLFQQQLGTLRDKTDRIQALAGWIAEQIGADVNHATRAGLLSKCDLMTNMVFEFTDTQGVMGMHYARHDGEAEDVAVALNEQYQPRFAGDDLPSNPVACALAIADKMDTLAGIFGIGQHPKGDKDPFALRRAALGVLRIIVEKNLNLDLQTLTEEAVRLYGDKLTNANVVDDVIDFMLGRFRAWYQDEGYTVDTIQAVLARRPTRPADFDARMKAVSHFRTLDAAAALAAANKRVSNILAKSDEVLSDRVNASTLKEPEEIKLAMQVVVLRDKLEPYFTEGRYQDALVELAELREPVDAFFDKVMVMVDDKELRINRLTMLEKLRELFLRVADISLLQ", "experiment": "ATP consumption assay (Kinase-Glo luminescence)", "assay_type": "biochemical", "conditions": "4 μM ATP, 500 μM glycine, tRNA-Gly(GCC) 0.25 mg/ml, 40 mM MgCl2, pH 7.5, room temperature; 50 nM enzyme", "data": [{"smiles": "Nc1ncnc2c1ncn2[C@@H]1O[C@H](COP(=O)(O)OP(=O)(O)OP(=O)(O)O)[C@@H](O)[C@H]1O", "note": "[ATP]", "values": [{"measurement": "ATP consumption assay (Kinase-Glo luminescence)", "result": "An ATP consumption assay was used to evaluate the aminoacylation activity of EcGlyRS on tRNA^Gly"}]}]}
